From patent US8796176B2, “Pesticidal composition comprising an alpha-alkoxyphenyl acetic acid derivative and a neonicotinoid compound” (Sumitomo Chemical Company, Ltd, priority 2008, dated 2014)

Test system: Rhizoctonia solani
Assay: Cucumber seed treatment test against Rhizoctonia solani (Test Example 4)
Assay type: in vivo
Details: cucumber seeds, seventh day after dissemination
Description: 5: Diameter of maculation: >20 mm Incidence of disease=Σ(Evaluation index of leaves checked)×100/(Number of total leaves checked) “Equation 1” Control value=100(A−B)/A “Equation 2” A: Incidence of disease of plant in untreated area B: Incidence of disease of plant in treated area Generally, the control value expected for the case where the given two kinds of active ingredient compounds are mixed and used for the treatment, the so-called control value expectation is calculated from the following Colby's calculating equation. […] They were allowed to grow in a greenhouse while irrigated and the number of non-budding seeds was checked on the seventh day after the dissemination and the incidence of disease was calculated by Equation 4. The control value was calculated by Equation 2 based on the incidence of disease. […]

Row | SMILES | Actual control value (clothianidin alone 200 g/Seed 100 kg) | Actual control value (compound (1b) alone 10 g/Seed 100 kg)
1 | CN/C(=N\[N+](=O)[O-])NCc1cnc(Cl)s1 [Clothianidin, clothianidin] | 4% | –
2 | CNC(=O)C(OC)c1ccccc1COc1cc(C)ccc1C (racemic) [(1b)] | – | 35%
